Measured values taken from patent US20250382332A1, “NOVEL ALPHA-FACTOR BASED PEPTIDES WITH ANTIFUNGAL ACTIVITY” (INVAIO SCIENCES, INC., priority 2024, published 2025).
Peptide text beside a SMILES is read from it.

Test system: Botrytis cinerea (B05.10)
Assay: Resazurin antifungal assay of 180 alpha-factor peptide variants towards Botrytis (Example 2)
Assay type: cell-based
Conditions: % inhibition of fungal growth, Botrytis conidia, resazurin; for Inhibition at 10 μM: peptide 10 μM; for Inhibition at 20 μM: peptide 20 μM; for Inhibition at 50 μM: peptide 50 μM; for Inhibition at 100 μM: peptide 100 μM
Experimental: The antifungal activity of 180 alpha-factor peptide variants towards Botrytis was tested. Experimental design:
Peptides corresponding to SEQ ID NO: 1-180 were chemically synthesized using the solid-phase synthesis method and resuspended in water to a stock solution of 1 mM. The stock solution was aliquoted in cryovials and stored at −80° C.
The Botrytis cinerea culture (B05.10) isolate was acquired from the Centraalbureau voor Schimmelcultures, the Netherlands. The Botrytis fungus was propagated on 0.5% V8 agar plates (200 ml V8 Juice, 3 g CaCO3, 15 g agar, 800-ml millipore water) at 20° C., in a 12 h photoperiod for 21 days.
Fungal conidia were harvested by scraping a Botrytis plate flooded with 1 ml water with 0.1% Tween 80 solution. Conidia were then collected in a 50 ml falcon tube by passing the solution through a 40 micron filter. The solution was then centrifuged at 6000 rpm and the pellet was resuspended in 1 ml of 20% glycerol. The conidia concentration of the resulting solution was counted using a hemocytometer. The stock was diluted to […] using 20% glycerol and frozen in 100 μl aliquots in −80° C. until further use.
Peptides were tested for activity against Botrytis, using the resazurin assay. For this, fungal stock conidia was first diluted to 5000 conidia/well. 50 μl of the spore suspension was added to each well of the sterile 96-well clear bottom testing plate and mixed with 50 μl of peptide solutions to a final concentration of 100, 50, 20, 15 and 10 μM. The plate was incubated for 24 h at 20° C. After 24 h, 10 μl of resazurin dye was added to the microtiter plate and incubated again for […]. Fluorescence was measured at 570/620 nm after 4 h of incubation with resazurin.
Growth inhibition was calculated by subtracting the fluorescence values of conidia only wells from sample wells and depicted as % inhibition of fungal growth. Four technical replicates were used for all treatments.

SMILES | Inhibition at 10 μM [%] | Inhibition at 20 μM [%] | Inhibition at 50 μM [%] | Inhibition at 100 μM [%]
CSCC[C@H](NC(=O)[C@@H]1CCCN1C(=O)[C@H](CCC(N)=O)NC(=O)CNC(=O)[C@@H]1CCCN1C(=O)[C@H](CCCCN)NC(=O)[C@H](Cc1ccccc1)NC(=O)[C@H](CO)NC(=O)[C@H](CC(C)C)NC(=O)[C@H](Cc1c[nH]c2ccccc12)NC(=O)[C@H](Cc1c[nH]cn1)NC(=O)[C@@H](N)CCCCN)C(=O)N[C@@H](Cc1ccc(O)cc1)C(=O)O [compound 20] (H-KHWLSFKPGQPMY-OH; N-terminus and C-terminus assumed) | <90 | <90 | 100 | 100
CSCC[C@H](NC(=O)[C@H](CC(C)C)NC(=O)[C@H](CCC(N)=O)NC(=O)[C@@H](NC(=O)[C@H](Cc1c[nH]c2ccccc12)NC(=O)[C@H](Cc1c[nH]cn1)NC(=O)[C@@H](N)CCCCN)C(C)C)C(=O)N[C@@H](CCCCN)C(=O)NCC(=O)N[C@@H](CCC(N)=O)C(=O)N1CCC[C@H]1C(=O)N[C@@H](CCSC)C(=O)N[C@@H](Cc1ccc(O)cc1)C(=O)O [compound 21] (H-KHWVQLMKGQPMY-OH; N-terminus and C-terminus assumed) | <90 | <90 | 100 | 100
CSCC[C@H](NC(=O)[C@H](CCCCN)NC(=O)[C@H](Cc1ccccc1)NC(=O)[C@H](CCC(N)=O)NC(=O)[C@@H](NC(=O)[C@H](CC(C)C)NC(=O)[C@H](Cc1c[nH]cn1)NC(=O)[C@@H](N)CCCCN)C(C)C)C(=O)NCC(=O)N[C@@H](CCC(N)=O)C(=O)N1CCC[C@H]1C(=O)N[C@@H](CCSC)C(=O)N[C@@H](Cc1ccc(O)cc1)C(=O)O [compound 22] (H-KHLVQFKMGQPMY-OH; N-terminus and C-terminus assumed) | <90 | <90 | 100 | 100
CSCC[C@H](NC(=O)CNC(=O)[C@H](CCC(N)=O)NC(=O)CNC(=O)[C@H](CC(N)=O)NC(=O)[C@H](CCCCN)NC(=O)[C@H](CC(C)C)NC(=O)[C@H](C)NC(=O)[C@@H](NC(=O)[C@H](Cc1c[nH]c2ccccc12)NC(=O)[C@H](Cc1c[nH]cn1)NC(=O)[C@@H](N)Cc1c[nH]c2ccccc12)C(C)C)C(=O)N[C@@H](Cc1ccc(O)cc1)C(=O)O [compound 23] (H-WHWVALKNGQGMY-OH; N-terminus and C-terminus assumed) | <90 | <90 | 98.68 | 100
CSCC[C@H](NC(=O)[C@@H]1CCCN1C(=O)[C@H](CCC(N)=O)NC(=O)CNC(=O)[C@@H]1CCCN1C(=O)[C@H](CCCCN)NC(=O)[C@H](Cc1ccccc1)NC(=O)[C@H](CC(N)=O)NC(=O)[C@H](CC(C)C)NC(=O)[C@H](Cc1ccc(O)cc1)NC(=O)[C@H](Cc1c[nH]cn1)NC(=O)[C@@H](N)CCCCN)C(=O)N[C@@H](Cc1ccc(O)cc1)C(=O)O [compound 24] (H-KHYLNFKPGQPMY-OH; N-terminus and C-terminus assumed) | <90 | <90 | 96.95 | 100
CSCC[C@H](NC(=O)[C@@H]1CCCN1C(=O)[C@H](CCC(N)=O)NC(=O)CNC(=O)[C@@H](NC(=O)[C@H](CCCCN)NC(=O)[C@H](Cc1ccccc1)NC(=O)[C@H](CCC(N)=O)NC(=O)[C@H](CC(C)C)NC(=O)[C@H](CC(C)C)NC(=O)[C@H](Cc1c[nH]cn1)NC(=O)[C@@H](N)Cc1c[nH]c2ccccc12)C(C)C)C(=O)N[C@@H](Cc1ccc(O)cc1)C(=O)O [compound 25] (H-WHLLQFKVGQPMY-OH; N-terminus and C-terminus assumed) | <90 | <90 | 92.63 | 100
CC[C@H](C)[C@H](NC(=O)[C@H](Cc1c[nH]c2ccccc12)NC(=O)[C@H](Cc1c[nH]cn1)NC(=O)[C@@H](N)Cc1c[nH]c2ccccc12)C(=O)N[C@@H](CCC(N)=O)C(=O)N[C@@H](Cc1ccccc1)C(=O)N[C@@H](CCCCN)C(=O)N1CCC[C@H]1C(=O)NCC(=O)N[C@@H](CCC(N)=O)C(=O)N[C@@H](CO)C(=O)N[C@@H](CCSC)C(=O)N[C@@H](Cc1ccc(O)cc1)C(=O)O [compound 26] (H-WHWIQFKPGQSMY-OH; N-terminus and C-terminus assumed) | <90 | <90 | 91.39 | 100
CSCC[C@H](NC(=O)[C@@H]1CCCN1C(=O)[C@H](CCC(N)=O)NC(=O)CNC(=O)[C@H](CO)NC(=O)[C@H](CCCCN)NC(=O)[C@H](CC(C)C)NC(=O)[C@H](CC(N)=O)NC(=O)[C@H](CC(C)C)NC(=O)[C@H](Cc1ccccc1)NC(=O)[C@H](Cc1c[nH]cn1)NC(=O)[C@@H](N)CCCCN)C(=O)N[C@@H](Cc1ccc(O)cc1)C(=O)O [compound 27] (H-KHFLNLKSGQPMY-OH; N-terminus and C-terminus assumed) | – | – | 90.58 | 100
CSCC[C@H](NC(=O)[C@@H]1CCCN1C(=O)[C@H](CCC(N)=O)NC(=O)CNC(=O)[C@@H]1CCCN1C(=O)[C@H](CCCCN)NC(=O)[C@H](CC(C)C)NC(=O)[C@H](C)NC(=O)[C@H](CC(C)C)NC(=O)[C@H](Cc1ccccc1)NC(=O)[C@H](Cc1c[nH]cn1)NC(=O)[C@@H](N)CCCCN)C(=O)N[C@@H](Cc1ccc(O)cc1)C(=O)O [compound 28] (H-KHFLALKPGQPMY-OH; N-terminus and C-terminus assumed) | – | – | <90 | 100
CSCC[C@H](NC(=O)[C@@H]1CCCN1C(=O)[C@H](CCC(N)=O)NC(=O)CNC(=O)[C@@H]1CCCN1C(=O)[C@H](CCCCN)NC(=O)[C@H](Cc1ccccc1)NC(=O)[C@H](CCCNC(=N)N)NC(=O)[C@H](CC(C)C)NC(=O)[C@H](CC(=O)O)NC(=O)[C@H](Cc1c[nH]cn1)NC(=O)[C@@H](N)CCCCN)C(=O)N[C@@H](Cc1ccc(O)cc1)C(=O)O [compound 29] (H-KHDLRFKPGQPMY-OH; N-terminus and C-terminus assumed) | – | – | <90 | 97.77
CC[C@H](C)[C@H](NC(=O)[C@@H](NC(=O)[C@H](CC(C)C)NC(=O)[C@H](Cc1c[nH]c2ccccc12)NC(=O)[C@H](Cc1c[nH]cn1)NC(=O)[C@@H]1CCCN1)[C@@H](C)O)C(=O)N[C@@H](CCCCN)C(=O)N1CCC[C@H]1C(=O)NCC(=O)N[C@@H](CCC(N)=O)C(=O)N1CCC[C@H]1C(=O)N[C@@H](CCSC)C(=O)N[C@@H](Cc1ccc(O)cc1)C(=O)O [compound 30] (H-PHWLTIKPGQPMY-OH; N-terminus and C-terminus assumed) | – | – | <90 | <90
CC[C@H](C)[C@H](NC(=O)[C@H](Cc1c[nH]c2ccccc12)NC(=O)[C@H](CCC(=O)O)NC(=O)[C@@H](N)CCCCN)C(=O)N[C@@H](CCC(N)=O)C(=O)N[C@@H](CC(C)C)C(=O)N[C@@H](CCCCN)C(=O)N[C@@H](CC(C)C)C(=O)NCC(=O)N[C@@H](CCC(N)=O)C(=O)N1CCC[C@H]1C(=O)N[C@@H](CCSC)C(=O)N[C@@H](Cc1ccc(O)cc1)C(=O)O [compound 31] (H-KEWIQLKLGQPMY-OH; N-terminus and C-terminus assumed) | – | – | <90 | <90
CSCC[C@H](NC(=O)CNC(=O)[C@H](CCC(N)=O)NC(=O)CNC(=O)[C@@H]1CCCN1C(=O)[C@H](CCCCN)NC(=O)[C@H](CC(C)C)NC(=O)[C@H](CO)NC(=O)[C@H](CC(C)C)NC(=O)[C@H](Cc1c[nH]c2ccccc12)NC(=O)[C@H](CO)NC(=O)[C@@H](N)CCCCN)C(=O)N[C@@H](Cc1ccc(O)cc1)C(=O)O [compound 32] (H-KSWLSLKPGQGMY-OH; N-terminus and C-terminus assumed) | – | – | <90 | <90
CSCC[C@H](NC(=O)[C@@H]1CCCN1C(=O)[C@H](CCC(=O)O)NC(=O)CNC(=O)[C@@H]1CCCN1C(=O)[C@H](CCCCN)NC(=O)[C@H](Cc1ccccc1)NC(=O)[C@H](CCC(N)=O)NC(=O)CNC(=O)[C@H](Cc1c[nH]c2ccccc12)NC(=O)[C@H](CCCNC(=N)N)NC(=O)[C@@H](N)Cc1c[nH]c2ccccc12)C(=O)N[C@@H](Cc1ccc(O)cc1)C(=O)O [compound 33] (H-WRWGQFKPGEPMY-OH; N-terminus and C-terminus assumed) | – | – | <90 | <90
CSCC[C@H](NC(=O)CNC(=O)[C@H](CCC(N)=O)NC(=O)CNC(=O)[C@@H]1CCCN1C(=O)[C@H](Cc1ccccc1)NC(=O)[C@H](Cc1ccccc1)NC(=O)[C@H](CO)NC(=O)[C@H](CC(C)C)NC(=O)[C@H](Cc1c[nH]c2ccccc12)NC(=O)[C@H](Cc1c[nH]cn1)NC(=O)[C@@H]1CCCN1)C(=O)N[C@@H](Cc1ccc(O)cc1)C(=O)O [compound 34] (H-PHWLSFFPGQGMY-OH; N-terminus and C-terminus assumed) | – | – | <90 | <90
